In patent US20260364072A1, “METHODS FOR PROMOTING EXPANSION OF HUMAN CD34+ CELLS IN VIVO AND FOR PROMOTING NEURAL REGENERATION” (THE REGENTS OF THE UNIVERSITY OF CALIFORNIA, priority 2023, published 2026):

Experiments:
[1] = tested on: KG-1a, MOLM-13 and HL-60 cells (SF3B family members, PTK2B-202); assay: Splice isoform biomarker qRT-PCR in human AML cell lines; type: cell-based; settings: 1 μM, 4 hr
Protocol: For quantitative analysis of splice isoform expression, RNA editing rates, and whole gene expression by qRT-PCR, cells or tissue fragments were harvested in RNA lysis buffer and total RNA was extracted using RNeasy mini or micro extraction kits (QIAGEN, Germantown, MD) following the manufacturer's protocol including a DNase incubation step to digest any trace genomic DNA present. Levels of ADAR1 variants and LSC-specific transcripts were quantified by qRT-PCR as previously described.^14 RNA-editing site-specific qRT-PCR (RESSqPCR) was performed for variants in AZIN1 transcripts.^53 Additional species-specific primers were also designed to quantify intron retention rates in cells treated with Rebecsinib as a biomarker of response to RNA splicing modulation. Specifically, for the two-step SYBR-green based assays, as previously described,^7,14,53 100-1000 ng of RNA were subjected to cDNA synthesis using the SUPERSCRIPT III™ (ThermoFisher Scientific) kit followed by qRT-PCR using SYBR GreenER (ThermoFisher Scientific) master mix according to the manufacturer's recommended procedures. qRT-PCR was performed using SYBR GREENER SUPER MIX™ (Life Technologies) on BioRad iQ5™, C1000 TOUCH™, or BioRad CFX384™ instruments. Human splice isoform-specific, RNA editing site-specific qPCR (RESSqPCR)^53. Primer sets that have not been previously published were designed and tested for efficiency followed by analyses in samples exposed to Rebecsinib, with species-specific HPRT primers used as controls. […] Relative mRNA expression values were calculated using the 2^−ΔCT method, with normalization to untreated or vehicle-treated controls.^54
For multi-species biomarker development and transcript variant-specific qRT-PCR experiments, human AML cell lines KG-1a, MOLM-13, and HL-60, and rat leukemia cells RBL-1 were grown to confluence and treated with 1 μM Rebecsinib for 4 hr. Cells were collected and lysed in Qiagen RNA lysis buffer, and analyzed using the species-specific primers and qRT-PCR procedures described above.

[2] = tested on: MF HPC; assay: Viability of high-risk MF CD34+ cells by flow cytometry; type: cell-based, human; settings: 72 hr, compared with vehicle controls
Protocol: (FIG. 28B) Flow cytometry-based viable cell counts (5,000 events measured) in high-risk MF samples after in vitro treatment of primary CD34^+ cells with vehicle control (DMSO) or Rebecsinib (72 hr).
Human HS5 and HS27a^45 or mouse bone marrow cells lines SL (hSCF and hIL3) and M2 (hIL3 and hG-CSF) were irradiated and then mixed at a ratio of 1:1 and incubated overnight for attachment. CD34^+ were selected from high-risk MF and sAML primary samples using magnetic beads (Miltenyi Biotec, Germany). As a control, CD34^+ cells from aged normal bone marrow (aNBM), young normal BM (yNBM) and cord blood (All Cells Inc, Alameda, CA) mononuclear cells were utilized. To establish co-cultures, 10,000-15,000 CD34^+ cells were added to SLM2 stroma in 1 ml of MYELOCULT H5100™ (STEMCELL Technologies, Vancouver, Canada). Rebecsinib or DMSO control were added at the initiation of co-culture at indicated concentrations. After one week, cells that were both attached to stroma and floating were collected, resuspended in fresh media and plated in methylcellulose (MC) H4330™ (STEMCELL Technologies) in triplicate. After 2 weeks primary colonies (more than 40 cells) were counted and individual multilineage colonies were plucked, cells resuspended and re-plated again in fresh MC. Secondary colonies were counted after another 14 days. […]

[3] = tested on: ADAR1; assay: ADAR1 expression by qRT-PCR in TF1a cells; type: cell-based, human; settings: TF1a AML cell line; 0.1 μM, 4 hours
From the text: For lentivirus-mediated knockdown of human ADAR1 in ADAR1 activation and RNA editing biomarker studies of the nanoluc-GFP reporter and endogenous transcripts, human leukemia cells were stably transduced with the lentiviral shRNA vectors targeting ADAR1 (shADAR1) or scrambled control (shCtrl) to ablate endogenous ADAR1 expression. The shRNA plasmids targeting ADAR1 (shADAR1) as well as the scrambled control (shCtrl) were purchased from VectorBuilder (Chicago, IL) (shCtrl: […] (SEQ ID NO:3) and shADAR1: […]) (SEQ ID NO:4). […] Viral titers were assessed by qRT-PCR and transduction efficiency was tested in 293T cells. […]
For quantitative analysis of splice isoform expression, RNA editing rates, and whole gene expression by qRT-PCR, cells or tissue fragments were harvested in RNA lysis buffer and total RNA was extracted using RNeasy mini or micro extraction kits (QIAGEN, Germantown, MD) following the manufacturer's protocol including a DNase incubation step to digest any trace genomic DNA present. Levels of ADAR1 variants and LSC-specific transcripts were quantified by qRT-PCR as previously described.^14 RNA-editing site-specific qRT-PCR (RESSqPCR) was performed for variants in AZIN1 transcripts.^53 Additional species-specific primers were also designed to quantify intron retention rates in cells treated with Rebecsinib as a biomarker of response to RNA splicing modulation. […]

[4] = tested on: sAML LSC; assay: Humanized sAML LSC mouse model; type: in vivo, human cells in Rag2-/-γc-/- mice; settings: twice weekly dosing; splicing factor mutated and unmutated samples
From the text: In humanized mouse models, sAML cells (CD34^+) from two unique […] patient samples that were splicing factor mutated or unmutated were utilized, including sAML50261 and sAML2008-5.^14 For in vivo efficacy and therapeutic index studies, sAML CD34^+ cells, or normal human cord blood-derived or aged bone marrow-derived HSPCs (CD34^+), were transplanted (50,000-200,000 cells per mouse) intrahepatically into neonatal Rag2^−/−γc^−/− mice, or intravenously into adult NSG-SGM3 mice (Jackson Laboratories, Bar Harbor, ME). A subset of experiments was performed with normal aged bone marrow cells that were transduced with the lentiviral ADAR1 nanoluc-GFP reporter vector prior to transplant. […] For animals that received transplants of cells transduced with the lentiviral ADAR1 nanoluc-GFP reporter, mice were imaged 15 weeks after transplant on the IVIS 200, as previously described.^79 Following treatment with Rebecsinib (five intravenous doses total over a two-week period), hematopoietic tissues (peripheral blood, bone marrow, spleens) were collected and analyzed by flow cytometry as previously described.^14 For splice isoform-specific qRT-PCR or RNA-seq analyses on cells from in vivo studies, human CD34^+ LSC from bone marrows and spleens of engrafted mice were isolated by magnetic bead separation (Miltenyi Biotec).

SMILES: CC[C@H](OC)[C@@H](C)[C@H]1O[C@@H]1[C@@H](O)[C@H](C)/C=C/C=C(\C)[C@H]1OC(=O)C[C@H](O)CC[C@@](C)(O)[C@@H](OC(C)=O)/C=C/[C@@H]1C [Rebecsinib]
- expression of PTK2B-202 isoform [1]: Decreased expression of the LSC-related PTK2B-202 isoform
- intronic retention of SF3B family members ([1]; KG-1a, MOLM-13 and HL-60): significant upregulation of intronic retention of SF3B family members
- SF3B3 intron retention response ([1]; across all cell lines): most potent and consistent response
- MF HPC viability [2]: decreased MF HPC viability
- ADAR1 expression as measured by qRT-PCR [3]: reduced ADAR1 expression
- sAML LSC burden in bone marrow, peripheral blood, and spleen [4]: significant reduction in sAML LSC burden
